Target: T1, Prostaglandin G/H synthase 1 (Ovis aries) (UniProt P05979)
T1 sequence (whole entry): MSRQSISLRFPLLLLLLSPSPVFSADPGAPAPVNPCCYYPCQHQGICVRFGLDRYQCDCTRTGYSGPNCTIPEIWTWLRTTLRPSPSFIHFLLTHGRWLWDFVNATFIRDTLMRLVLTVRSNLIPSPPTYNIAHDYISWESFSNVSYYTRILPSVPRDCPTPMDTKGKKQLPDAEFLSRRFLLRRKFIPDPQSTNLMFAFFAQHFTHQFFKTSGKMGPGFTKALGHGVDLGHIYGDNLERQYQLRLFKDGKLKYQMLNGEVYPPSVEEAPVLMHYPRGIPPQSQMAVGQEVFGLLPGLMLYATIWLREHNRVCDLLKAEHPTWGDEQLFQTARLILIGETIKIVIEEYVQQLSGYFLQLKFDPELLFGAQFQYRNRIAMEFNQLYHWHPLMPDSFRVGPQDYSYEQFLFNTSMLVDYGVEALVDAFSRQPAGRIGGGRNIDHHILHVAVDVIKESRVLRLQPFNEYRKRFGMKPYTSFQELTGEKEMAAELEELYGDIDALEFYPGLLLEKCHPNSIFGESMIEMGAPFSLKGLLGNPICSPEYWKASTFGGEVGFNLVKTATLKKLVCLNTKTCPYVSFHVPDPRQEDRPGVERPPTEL
Conditions: 1 uM
Description: Binding affinity to ovine COX1 at 1 uM to 25 uM

Row | Kinact [µM] | SMILES
1 | 2.3 | CC[C@H](CO)NC(=O)Cc1c(C)n(C(=O)c2ccc(Cl)cc2)c2ccc(OC)cc12
2 | 4 | CC[C@@H](CO)NC(=O)Cc1c(C)n(C(=O)c2ccc(Cl)cc2)c2ccc(OC)cc12

— ChEMBL document CHEMBL1147054, “Structural basis of enantioselective inhibition of cyclooxygenase-1 by S-alpha-substituted indomethacin ethanolamides” (J Biol Chem, 2007)
